Reference: US20130261045A1, “GREEN TEA POLYPHENOL ALPHA SECRETASE ENHANCERS AND METHODS OF USE” (UNIVERSITY OF SOUTH FLORIDA, priority 2005, published 2013)

Experiments:
Aβ generation = test: Aβ ELISA, transgenic APPsw mouse-derived primary neuronal cells (Example 1); assay type: cell-based; conditions: 20 μM, FIG. 1B
Method: Aβ1-40 and 1-42 peptides were analyzed in the conditioned media from SweAPP N2a cells (FIGS. 1A, 1C, 1D) and transgenic APPsw mouse-derived primary neuronal cells (FIG. 1B) by ELISA (n=3 for each condition).
TAPI-1, β and γ-secretase inhibitors were obtained from Calbiochem (San Diego, Calif.). Green tea extract (75% polyphenols) was obtained from the Vitamin Shoppe™ (North Bergen, N.J.).
Cultured cells were lysed in ice-cold-lysis buffer (20 mM Tris, pH 7.5, 150 mM NaCl, 1 mM EDTA, 1 mM EGTA, 1% v/v Triton X-100, 2.5 mM sodium pyropgosphate, 1 mM β-glycerolphosphate, 1 mM Na3VO4, 1 μg/mL leupeptin, 1 mM PMSF) as previously described (Tan et al., 2002). Mouse brains were isolated under sterile conditions on ice and placed in ice-cold lysis buffer. […] Total Aβ1-42 species were detected by acid extraction of brain homogenates in 5 M guanidine buffer (ret), followed by a 1:10 dilution in lysis buffer. Soluble Aβ1-42 was directly detected in cultured cell lysates or brain homogenates prepared with lysis buffer described above by a 1:4 or 1:10 dilution, respectively. Aβ1-42 was quantified in these samples using the Aβ1-42 ELISA kit (BioSource, Camarillo, Calif.) in accordance with the manufacturer's instructions, except that standards included a 0.5 M guanidine buffer. […]

α-secretase = α-secretase cleavage activity kit, lysates of APP-transfected N2a cells; assay type: cell-based, murine; conditions: first 1 to 3 hours after EGCG
transgenic APPsw mice = test: EGCG IP treatment of transgenic APPsw mice (brain Aβ, APP fragments, secretase activity, plaques); assay type: in vivo, mouse
Method: Soluble Aβ (FIG. 4B) and insoluble Aβ prepared with 5 M guanidine (FIG. 4C) were analyzed by ELISA. Data are represented as mean+/−SEM of Aβ (pg/mg protein). […] (FIG. 4D) α-, β- and γ-secretase cleavage activities were analyzed by secretase cleavage activity kits. Data are presented as mean+/−SEM of fluorescence units/mg protein. […] (FIG. 4E) Mouse brain paraffin sections stained with anti-human Aβ antibody (4G8); left control PBS-treated mice. […] Top, cingulated cortex (CC); Middle, hippocampus (H); Bottom, entorhinal cortex (EC). […] (FIG. 4F) illustrates bar graphs comparing the Aβ burden (%) for transgenic APPsw mice treated with two different compounds.
Cultured cells were lysed in ice-cold-lysis buffer (20 mM Tris, pH 7.5, 150 mM NaCl, 1 mM EDTA, 1 mM EGTA, 1% v/v Triton X-100, 2.5 mM sodium pyropgosphate, 1 mM β-glycerolphosphate, 1 mM Na3VO4, 1 μg/mL leupeptin, 1 mM PMSF) as previously described (Tan et al., 2002). Mouse brains were isolated under sterile conditions on ice and placed in ice-cold lysis buffer. Brains were then sonicated on ice for approximately 3 min, allowed to stand for 15 min at 4° C., and centrifuged at 15,000 rpm for 15 min. Total Aβ1-42 species were detected by acid extraction of brain homogenates in 5 M guanidine buffer (ret), followed by a 1:10 dilution in lysis buffer. Soluble Aβ1-42 was directly detected in cultured cell lysates or brain homogenates prepared with lysis buffer described above by a 1:4 or 1:10 dilution, respectively. Aβ1-42 was quantified in these samples using the Aβ1-42 ELISA kit (BioSource, Camarillo, Calif.) in accordance with the manufacturer's instructions, except that standards included a 0.5 M guanidine buffer.
Cultured cells and mouse brain were lysed in ice-cold lysis buffer described above, and an aliquot corresponding to 50 μg of total protein was electrophoretically separated using 16.5% Tris-tricine gels. Electrophoresed proteins were then transferred to PVDF membranes (Bio-Rad), washed in dH2O, and blocked for 1 hour at ambient temperature in Tris-buffered saline (TBS; Bio-Rad) containing 5% (w/v) for non-fat dry milk. After blocking, membranes were hybridized for 1 hour at ambient temperature with various antibodies, including against the C- (369), N-terminus of APP (22C11), the N-terminus of Aβ (6E10), and ADAM10 and TACE (Calbiochem). Membranes were then washed 3× for 5 min each in dH2O and incubated for 1 hour at ambient temperature with the appropriate HRP-conjugated secondary antibody (1:1,000, Pierce Biotechnology, Inc. Rockford, Ill.). All antibodies were diluted in TBS containing 5% (w/v) of non-fat dry milk. Blots were developed using the luminal reagent (Pierce Biotechnology). Densitometric analysis was done using the Fluor-S Multimager™ with Quantity One™ software (Bio-Rad). Immunoprecipitation was performed for detection of sAPP-α, sAPP-β and Aβ by incubating 200 μg of total protein of each sample with 6E10 (1:100; Signet) or 22C11 (1:100; Roche, Basel, Switzerland) overnight with gentle rocking at 4° C., and 10 μL of 50% protein A-Sepharose beads were then added to the sample (1:10; Sigma) prior to gentle rocking for an additional 4 hours at 4° C. Following washes with 1× cell lysis buffer, samples were subjected to Western blot as described above. Antibodies used for Western blot included antibody 369 (1:1,000), anti-C-terminal APP antibody (1:500; Chemicon, Temecula, Calif.), BAM-10 (1:1,000; Sigma), 6E10 (1:1,000; Signet) or anti-Actin antibody (1:1,500; as an internal reference control; Roche). α-, β- and γ-secretase activities were quantified in cell lysates and mouse brain homogenates using available kits based on secretase-specific peptides conjugated to fluorogenic receptor molecules (R&D Systems, Minneapolis, Minn.).

ADAM17 = test: Western blot of ADAM17 in SweAPP N2a cells; assay type: cell-based, murine; conditions: EGCG treatment; data not shown
Method: Cultured cells were lysed in ice-cold lysis buffer described above, and an aliquot corresponding to 50 μg of total protein was electrophoretically separated using 16.5% Tris-tricine gels. Electrophoresed proteins were then transferred to PVDF membranes (Bio-Rad, Richmond, Calif.), washed in ddH2O, and blocked for 1 h at ambient temperature in Tris-buffered saline (TBS; Bio-Rad) containing 5% (w/v) non-fat dry milk. After blocking, membranes were hybridized for 1 h at ambient temperature with various primary antibodies. Membranes were then washed 3 times for 5 min each in ddH2O and incubated for 1 h at ambient temperature with the appropriate HRP-conjugated secondary antibody (1:1,000, Pierce Biotechnology, Inc. Rockford, Ill.). All antibodies were diluted in TBS containing 5% (w/v) of non-fat dry milk. Blots were developed using the luminol reagent (Pierce Biotechnology). Densitometric analysis was done using the Fluor-S MultiImager™ with Quantity One™ software (Bio-Rad). For examining sAPP-α, conditioned medium was collected following treatment according to a modified protocol from Chen and Fernandez (Chen et al., 2004). sAPP-α was extracted using 3K Nanosep centrifugal filters (Pall Life Sciences, Ann Arbor, Mich.) and protein concentrate was prepared for the aforementioned electrophoresis. […]

ADAM10 = test: Western blot of ADAM10 maturation in parental (non-transfected) N2a cells; assay type: cell-based, murine; conditions: various doses, 8 h
Method: Cultured cells were lysed in ice-cold lysis buffer described above, and an aliquot corresponding to 50 μg of total protein was electrophoretically separated using 16.5% Tris-tricine gels. Electrophoresed proteins were then transferred to PVDF membranes (Bio-Rad, Richmond, Calif.), washed in ddH2O, and blocked for 1 h at ambient temperature in Tris-buffered saline (TBS; Bio-Rad) containing 5% (w/v) non-fat dry milk. After blocking, membranes were hybridized for 1 h at ambient temperature with various primary antibodies. Membranes were then washed 3 times for 5 min each in ddH2O and incubated for 1 h at ambient temperature with the appropriate HRP-conjugated secondary antibody (1:1,000, Pierce Biotechnology, Inc. Rockford, Ill.). All antibodies were diluted in TBS containing 5% (w/v) of non-fat dry milk. Blots were developed using the luminol reagent (Pierce Biotechnology). Densitometric analysis was done using the Fluor-S MultiImager™ with Quantity One™ software (Bio-Rad). […] Antibodies used for Western blot included: antibody 369 (which recognizes the carboxyl-terminus of APP; 1:1,500), clone 22C11 (against the amino-terminus of APP; 1:1,500), clone 6E10 (against amino acids 1-17 of Aβ; 1:1,500), anti-ADAM9 (1:500), and antibodies against ADAM10 (1:500), ADAM17 (1:500) or actin (1:1,500; as an internal reference control).

[1] = IP 20 mg/kg daily for 60 days, ELISA

With `O=C(O[C@@H]1Cc2c(O)cc(O)cc2O[C@@H]1c1cc(O)c(O)c(O)c1)c1cc(O)c(O)c(O)c1` [EGCG, (−)-epigallocatechin-3-gallate] the “reduction of Aβ1-42 generation over control (PBS)” value (Aβ generation) was 40%, the “α-secretase cleavage activity in cell lysate” value (α-secretase) was “markedly elevated” and the “elevation of α-secretase cleavage activity in brain” value (transgenic APPsw mice; IP 20 mg/kg daily for 60 days) was 28%. The “sAPP-α in brain versus PBS” value (transgenic APPsw mice; IP 20 mg/kg daily for 60 days) was “markedly increased”, the “α-CTF in brain versus PBS” value (transgenic APPsw mice; IP 20 mg/kg daily for 60 days) was “markedly increased” and the “reduction of soluble Aβ1-42 level in brain” value (transgenic APPsw mice; [1]) was roughly 50%. For the same molecule, the “reduction of total Aβ1-42 level in brain” value (transgenic APPsw mice; [1]) was roughly 25%, the “reduction of 4G8 immunoreactive and thioflavin S positive Aβ deposits” value (transgenic APPsw mice; IP, 14 months of age, across the three brain regions examined) was 32-36% and the “decrease of insoluble 5 M guanidine-prepared Aβ levels” value (transgenic APPsw mice; IP, ELISA, FIG. 4C) was “approximately 26%”. For the same molecule, the “activity of β-secretase cleavage in brain” value (transgenic APPsw mice; in vivo, FIG. 4d) was “not decreases”, the ADAM17 expression (ADAM17) was “no significant effects” and the ADAM10 maturation (ADAM10) was “dose-dependently increased”.
